In series [1] the test system is cyclin D1. Put plainly: Western blot of Cyclin D1, Example 6B. It is filed as cell-based. The following applies: 24 h, compared to control (DMSO). The protocol:
Cells were plated at a density of 3×10^5 cells/well for 24 hrs. Representative compounds or DMSO alone was then added to the wells for 24 h at 250 nM (note: Compound F was administered at a concentration of 2 μM). Cells were trypsinised, pelleted, washed ×3 in PBS, and lysed using a 2% SDS lysis solution (Sigma—05030).
Western blot analysis was then carried out to look at Cyclin D1 (Abeam—ab134175), PRK8 (Sigma—P6248), Rb (Abeam—[…]) and GAPDH (Sigma—G9545) levels.
(Immunoblotting shows a protein as a band on a membrane.)

Series [2] deals with HCT-116 xenograft. Put plainly: Subcutaneous HCT-116 xenograft model, tumor volume. It is filed as in vivo, nude mice. The following applies: vs control. The protocol:
The efficacy of Compound 42, Compound F, and Compound Q3 were evaluated in the treatment of subcutaneous HCT-116 xenograft model in nude mice.
Cell Culture: HCT-116 tumor cell lines were maintained in vitro as a monolayer culture in DMEM medium supplemented with 10% fetal bovine serum at 37° C. in an atmosphere of 5% CO2 in air. The tumor cells were routinely subcultured twice weekly by trypsin-EDTA treatment (0.05% Trypsin-EDTA) and 1:4 split: The cells in an exponential growth phase were harvested and counted for tumor inoculation.
Tumor Inoculation: Each, mouse was inoculated subcutaneously at the flank region with HCT-1.16 cells (1.0×106) in 0.1 ml of 1×PBS mixed with Matrigel (1:1) for tumor development. The day Xenotransplantation was performed is denoted as day 0.
Thirty (30) animals with approx 100-150 mm^3 tumors were selected for HCT-116 follow up experiment and randomly placed Into Groups 1, 2, […], 4, 5, and 6 as shown in Table 8.
Group Assignment: Before grouping and treatment, all animals were weighed and fee tumor volumes were confirmed (100-150 mm^3) using electronic caliper. Since the tumor volume can affect fee effectiveness of any given treatment mice into groups using randomized block design as following: First the experimental animals were divided into homogeneous blocks based on their tumor volume. Secondly, within each block, randomization of experimental animals to different groups By using randomized block design to assign experimental animals, we ensure that each animal has the same probability of being assigned to any given treatment groups and therefore systematic error is minimized.
(§1) Treatments were initiated when turner volume reached 100-150 mm^3. Treatments started on Day 5. Test compounds were administered intraperitoneally (II′) in 10 mg/mL solution comprising 10% N,N-dimethyl acetamide, 15% macrogol 15 hydroxy stearate, polyethylene glycol-15-hydroxystearate, and 75% aqueous hydroxypropyl-beta-cyclodextrin.
(§2) Observation and data collection: After tumor cells inoculation, the animals were checked daily for morbidity and mortality. At the time of routine monitoring, the animals were checked for any adverse effects of tumor growth and treatments on normal behavior such as mobility, visual estimation of food and water consumption, body weight gain/loss, eye/hair matting and any other abnormal effects, Death and observed clinical signs were recorded, per […] IACUC. Tumor volumes were measured every 3-4 days in two dimensions using an electronic caliper, sad the volume data are expressed in, mm3 using the formula: V=0.5 a×b^2 where a and b are fee long and short diameters of the tumor, respectively. Dosing and tumor volume measurement procedures were conducted in a Laminar Flow Cabinet according to Altogen Labs IACUC regulations.
Statistics: Summary statistics, the mean and the standard error of the mean (SEM), are provided for the tumor volume of each group at each time point. Statistical analysis of difference in tumor volume among the groups and the analysis of drug interaction were conducted on the data obtained after the final dose.

Series [3] can be described thus: HCT-116 xenograft model, body weight and adverse events. The class given is in vivo. The following applies: for weight loss or adverse events: Groups 2-6 of Table 8, IP daily for 20 days; for body weight: throughout the duration of the study, Compound 42 1 and 5 mg/kg, Compound F 10 or 25 mg/kg. As for the experimental part: as §1, §2
Body weight loss daring fee study: Sacrifice fee mouse when one measurement of body weight loss (BWL)>20% (only for control animals). Animal research associated wife this study was conducted under Altogen Labs IACUC regulatory space. Altogen Labs IACUC guidelines were followed in case of BWL and any other conditions.

For series [4], the system named is HCT 116. Put plainly: Cell proliferation assay. It is filed as cell-based. The conditions noted are these: Homo sapiens. As for the experimental part: (§3) Measurement of the inhibitive effect of compounds on cancer cell proliferation was performed. The assays were performed under the following conditions: Cells are harvested at a concentration of 4×10^4 cells/ml in media. Volumes of 100 μL/well of these cell suspensions were added to a 96 well plate using a multichannel pipette. Plates were gently agitated to ensure an even dispersion of cells over a given plate. Cells were then incubated at 37° C., 5% CO2 overnight. Following this, 100 μL of compound at varying concentrations was added to wells in triplicate. Control wells are those with 100 μL media containing 0.33% DMSO added to cell suspension (this is the equivalent volume of DMSO found in the highest concentration of drug). Plates were then gently agitated, as above, and incubated at 37° C., 5% CO2 for 72 hrs (control wells have reached 80-90% confluency). Assessment of cell proliferation in the presence of Compounds C and F was determined by the acid phosphatase assay.
(§4) Following the incubation period of 72 hrs, media was removed from the plates. Each well on the plate was washed twice with 100 μL PBS. This was then removed and 100 μL of freshly prepared phosphatase substrate (10 mM p-nitrophenol phosphate in 0.1M sodium acetate, 0.1% triton X-100, pH 5.5) was added to each well. The plates were then incubated in the dark at 37° C. for 2 hours. Color development was monitored during this time. The enzymatic reaction was stopped by the addition of 50 μL of 1N NaOH. The plate was read in a dual beam plate reader at 405 nm with a reference wavelength of 620 nm. The absorbance reading of the latter is subtracted from the former, and the effect of the drug on cell proliferation was then measured as a percentage against the control cells (DMSO), which is taken as 0% inhibition.

Series [5] deals with A549. Nature of the series: Cell proliferation assay. The class given is cell-based. The conditions noted are these: Homo sapiens. The protocol: as §3, §4
Series [6] concerns TOV-21G. Nature of the series: Cell proliferation assay. The following applies: Homo sapiens. The class given is cell-based. The protocol: as §3, §4
Series [7] deals with OAW42. Put plainly: Cell proliferation assay. It is filed as cell-based. The following applies: Homo sapiens, OAW-42; for IC50: Ovarian OAW42. The protocol:
as §3, §4

Series [8] deals with TOV-112D. Put plainly: Cell proliferation assay. The class given is cell-based. The conditions noted are these: Homo sapiens. The protocol: as §3, §4
For series [9], the system named is Jeko-1. Put plainly: Cell proliferation assay. The conditions noted are these: Homo sapiens; for IC50: Mantle Cell Jeko-1, overexpression of Cyclin D. The class given is cell-based. The protocol:
as §3, §4

Where [10] appears, read: Groups 2-6 of Table 8 (Compound 42 1 and 5, Q3 5 and 15, F 25 mg/kg), IP daily for 20 days, 28 days.
Setting [11] is: CRC HCT-116, loss of p16 (mutant p53), read-out: Proliferation IC50.
Where [12] appears, read: Ovarian TOV21G, read-out: Proliferation IC50.
[13] abbreviates: Ovarian TOV112D, loss of p16 (mutant p53), read-out: Proliferation IC50.

Molecules are shown by their SMILES. “Also recorded” adds a separate entry of the source. Where two headings read alike, the source gives them in different places. A value given as a limit tells only on which side of the number the result lay.

As to `Cc1ccccc1C(=O)Nc1nc(NC(=O)c2ccccc2C)n(-c2ccc(OC(F)(F)F)cc2)n1` [Compound 42, N,N′-(1-(4-(trifluoromethoxy)phenyl)-1H-1,2,4-triazole-3,5-diyl)bis(2-methylbenzamide)], the “Cyclin D1 expression” value was “reduction of Cyclin D1 expression” in series [1] (HCT-116, 250 nM) and “reduction of Cyclin D1 expression” in [1] (TOV-112, 250 nM). Besides, the “tumor growth (tumor volume)” value in series [2] (1 mg/kg, IP, over 28 days) is reported as “reduce tumor growth”; in series [2] (5 mg/kg, IP, over 28 days) it was “reduce tumor growth”; in series [2] (setting [10]), “reduce the tumor growth”. For the same compound, the “weight loss or adverse events” value in [3] is reported as “No weight loss or any adverse events”. The body weight entry in series [3] is given as “maintained body weight”. Also, the IC50 in series [4] (setting [11]) was 87 nM; in series [6] (setting [12]) it was 109 nM; in [7], 166 nM; in series [8] (setting [13]), 103 nM; in series [9] it was 154 nM. Moreover, the EC50 was 87 nM in series [4] (Table 7a, Colon (HCT-116), read-out: EC50); 72 nM in [5] (Table 7a, Lung (A549)); 74 nM in [6] (Table 7a, Ovarian (TOV21G)); 166 nM in series [7] (Table 7a, Ovarian (OAW42)); 98 nM in series [8] (Table 7a, Ovarian (TOV112D), read-out: EC50); 154 nM in [9] (Table 7a, Mantle Cell (Jeko-1)).

On to `Cc1ccccc1C(=O)Nc1nc(NC(=O)c2ccccc2C)n(-c2ccccc2)n1` [Compound F, 2-methyl-N-[5-[(2-methylbenzoyl)amino]-1-phenyl-1,2,4-triazol-3-yl]benzamide], for which the “Cyclin D1 expression” value in series [1] (HCT-116, 2 μM) is on record as “reduction of Cyclin D1 expression”; in [1] (TOV-112, 2 μM), “reduction of Cyclin D1 expression”. The “tumor growth (tumor volume)” value was “substantially reduce tumor growth” in series [2] (10 mg/kg, over 28 days); “most substantially reduced; also recorded: substantially reduce tumor growth” in series [2] (25 mg/kg, IP, over 28 days); “reduce the tumor growth” in [2] (setting [10]). The “weight loss or adverse events” value in series [3] was “No weight loss or any adverse events”. Moreover, the body weight entry in series [3] is recorded as “maintained body weight”. For the same compound, the IC50 was 1300 nM in series [4] (setting [11]); 2000 nM in [4] (HCT 116, 72 hrs, read-out: Cell Viability: IC50); 7.54 µM in series [5] (A549, 72 hrs, read-out: Cell Viability: IC50); 1160 nM in series [6] (TOV21G, TOV-21G, 72 hrs, read-out: Cell Viability: IC50); 1500 nM in [6] (setting [12]); > 2500 nM in series [7]. The IC50 in series [8] (TOV112D, TOV-112D, 72 hrs, read-out: Cell Viability: IC50) is 990 nM; in [8] (setting [13]), 850 nM; in series [9] it was > 2500 nM.

The EC50 is the concentration that produces a half-maximal response.

(Values after patent US20210244712A1, “METHODS FOR TREATING PATIENTS WITH CANCER HAVING DEFECTS IN CYCLIN D REGULATION” (NysnoBio Ireland DAC, priority 2018, published 2021).)
